# Laboratory results reported in patent US7138361B2, “Herbicidal heterocycles” (E. I. du Pont de Nemours and Company, priority 2000, dated 2006).
# Legend:
# Format in all cases: in vivo
# [1] = test system: Surinam grass (Brachiaria decumbens); experiment: Test B postemergence
# Summary of the method: (§1)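 Post-treatment, species sat 13–15 days under greenhouse conditions before visual scoring against controls, 0 (no effect) through 100 (complete control). Application preemergence to sown seeds or postemergence at 1- to 4-leaf stage, using a non-phytotoxic solvent/surfactant formulation.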
# [2] = test system: barnyardgrass (Echinochloa crus-galli); experiment: Test B postemergence
# Summary of the method: as §1
# [3] = test system: blackgrass (Alopecurus myosuroides); experiment: Test B postemergence
# Summary of the method: as §1
# [4] = test system: cocklebur (Xanthium strumarium); experiment: Test B postemergence
# Summary of the method: as §1
# corn (Zea mays) [5] = experiment: Test B postemergence
# Summary of the method: as §1
# [6] = test system: crabgrass (Digitaria sanguinalis); experiment: Test B postemergence
# Summary of the method: as §1
# [7] = test system: giant foxtail (Setaria faberii); experiment: Test B postemergence
# Summary of the method: as §1
# [8] = test system: lambsquarters (Chenopodium album); experiment: Test B postemergence
# Summary of the method: as §1
# [9] = test system: morning glory (Ipomoea hederacea); experiment: Test B postemergence
# Summary of the method: as §1
# [10] = test system: pigweed (Amaranthus retroflexus); experiment: Test B postemergence
# Summary of the method: as §1
# [11] = test system: velvetleaf (Abutilon theophrasti); experiment: Test B postemergence
# Summary of the method: as §1
# [12] = test system: wheat (Triticum aestivum); experiment: Test B postemergence
# Summary of the method: as §1
# wild oat (Avena fatua) = experiment: Test B postemergence
# Summary of the method: as §1
# [13] = test system: Surinam grass (Brachiaria decumbens); experiment: Test B preemergence
# Summary of the method: as §1
# [14] = test system: barnyardgrass (Echinochloa crus-galli); experiment: Test B preemergence
# Summary of the method: as §1
# [15] = test system: cocklebur (Xanthium strumarium); experiment: Test B preemergence
# Summary of the method: as §1
# corn (Zea mays) [16] = experiment: Test B preemergence
# Summary of the method: as §1
# [17] = test system: crabgrass (Digitaria sanguinalis); experiment: Test B preemergence
# Summary of the method: as §1
# [18] = test system: giant foxtail (Setaria faberii); experiment: Test B preemergence
# Summary of the method: as §1
# [19] = test system: lambsquarters (Chenopodium album); experiment: Test B preemergence
# Summary of the method: as §1
# [20] = test system: morning glory (Ipomoea hederacea); experiment: Test B preemergence
# Summary of the method: as §1
# [21] = test system: pigweed (Amaranthus retroflexus); experiment: Test B preemergence
# Summary of the method: as §1
# rice (Oryza saliva) [22] = experiment: Test B preemergence
# Summary of the method: as §1
# [23] = test system: velvetleaf (Abutilon theophrasti); experiment: Test B preemergence
# Summary of the method: as §1
# [24] = test system: barnyardgrass (Echinochloa crus-galli); experiment: Test B flooded paddy test; details: Rate 1000 g/ha, scale of 0 to 100 where 0 is no effect and 100 is complete control, visually evaluated after 13 to 15 days
# Method: (§2) At the same time, plants selected from these crop and weed species and also blackgrass (Alopecurus myosuroides), wheat (Triticum aestivum) and wild oat (Avena fatua) were treated with postemergence applications of test chemicals formulated in the same manner. Plants ranged in height from 2 to 18 cm (1- to 4-leaf stage) for postemergence treatments. Plant species in the flooded paddy test consisted of rice (Oryza saliva), smallflower flatsedge (Cyperus difformis), duck salad (Heteranthera limosa) and barnyardgrass (Echinochloa crus-galli) grown to the 2-leaf stage for testing. Treated plants and controls were maintained in a greenhouse for 13 to 15 days, after which time all species were compared to controls and visually evaluated. Plant response ratings, summarized in Table B, are based on a scale of 0 to 100 where 0 is no effect and 100 is complete control. A dash (-) response means no test result.
# [25] = test system: duck salad (Heteranthera limosa); experiment: Test B flooded paddy test; details: Rate 1000 g/ha, scale of 0 to 100 where 0 is no effect and 100 is complete control, visually evaluated after 13 to 15 days
# Method: as §2
# rice (Oryza saliva) [26] = experiment: Test B flooded paddy test; details: Rate 1000 g/ha, scale of 0 to 100 where 0 is no effect and 100 is complete control, visually evaluated after 13 to 15 days
# Method: as §2
# [27] = test system: smallflower flatsedge (Cyperus difformis); experiment: Test B flooded paddy test; details: Rate 1000 g/ha, scale of 0 to 100 where 0 is no effect and 100 is complete control, visually evaluated after 13 to 15 days
# Method: as §2
# [28] = Rate 125 g/ha, scale 0 to 100, 0 no effect, 100 complete control
# [29] = Rate 500 g/ha, scale 0 (no effect) to 100 (complete control), 13 to 15 days
# [30] = Preemergence, Rate 500 g/ha, scale 0 to 100, 0 no effect, 100 complete control
# [31] = preemergence, Rate 125 g/ha, scale of 0 to 100 where 0 is no effect and 100 is complete control, 13 to 15 days
# [32] = Rate 125 g/ha, scale 0 (no effect) to 100 (complete control), 13 to 15 days
# [33] = Rate 500 g/ha, scale 0 to 100, 0 is no effect, 100 is complete control, 13 to 15 days
smiles,measurement,setting,value
Cc1ccnc(N2CCC(n3ccc(C(C)(C)C)n3)C2=O)c1 (centres unmarked) [Compound 139],"Plant response rating, Surinam grass",[1]; [28],0
same,"Plant response rating, Surinam grass",[1]; [29],0
same,"Plant response rating, Barnyardgrass",[2]; [28],0
same,"Plant response rating, Barnyardgrass",[2]; [29],0
same,"Plant response rating, Blackgrass",[3]; [28],0
same,"Plant response rating, Blackgrass",[3]; [29],0
same,"Plant response rating, Cocklebur",[4]; [28],0
same,"Plant response rating, Cocklebur",[4]; [29],0
same,"Plant response rating, Corn",corn (Zea mays) [5]; [28],0
same,"Plant response rating, Corn",corn (Zea mays) [5]; [29],0
same,"Plant response rating, Crabgrass",[6]; [28],0
same,"Plant response rating, Crabgrass",[6]; [29],0
same,"Plant response rating, Foxtail, Giant",[7]; [28],0
same,"Plant response rating, Foxtail, Giant",[7]; [29],0
same,"Plant response rating, Lambsquarters",[8]; [28],0
same,"Plant response rating, Lambsquarters",[8]; [29],0
same,"Plant response rating, Morningglory",[9]; [28],0
same,"Plant response rating, Morningglory",[9]; [29],0
same,"Plant response rating, Pigweed",[10]; [28],0
same,"Plant response rating, Pigweed",[10]; [29],0
same,"Plant response rating, Velvetleaf",[11]; [28],0
same,"Plant response rating, Velvetleaf",[11]; [29],0
same,"Plant response rating, Wheat",[12]; [28],0
same,"Plant response rating, Wheat",[12]; [29],0
same,"Plant response rating, Wild Oat",wild oat (Avena fatua); [28],0
same,"Plant response rating, Wild Oat",wild oat (Avena fatua); [29],0
same,"Plant response rating, Surinam grass",[13]; [30],0
same,"Plant response rating, Surinam grass",[13]; [31],0
same,"Plant response rating, Barnyardgrass",[14]; [30],0
same,"Plant response rating, Barnyardgrass",[14]; [31],0
same,"Plant response rating, Cocklebur",[15]; [30],0
same,"Plant response rating, Corn",corn (Zea mays) [16]; [30],0
same,"Plant response rating, Corn",corn (Zea mays) [16]; [31],0
same,"Plant response rating, Crabgrass",[17]; [30],0
same,"Plant response rating, Crabgrass",[17]; [31],0
same,"Plant response rating, Foxtail, Giant",[18]; [30],0
same,"Plant response rating, Foxtail, Giant",[18]; [31],0
same,"Plant response rating, Lambsquarters",[19]; [30],100
same,"Plant response rating, Lambsquarters",[19]; [31],100
same,"Plant response rating, Morningglory",[20]; [30],0
same,"Plant response rating, Morningglory",[20]; [31],0
same,"Plant response rating, Pigweed",[21]; [30],100
same,"Plant response rating, Pigweed",[21]; [31],0
same,"Plant response rating, Rice",rice (Oryza saliva) [22]; [30],0
same,"Plant response rating, Rice",rice (Oryza saliva) [22]; [31],0
same,"Plant response rating, Velvetleaf",[23]; [30],0
same,"Plant response rating, Velvetleaf",[23]; [31],0
same,"Plant response rating, Barnyardgrass",[24],20
same,"Plant response rating, Ducksalad",[25],0
same,"Plant response rating, Rice",rice (Oryza saliva) [26],0
same,"Plant response rating, Flatsedge",[27],70
Cc1ccc(N2CCC(n3ccc(C(C)(C)C)n3)C2=O)cc1C(F)(F)F (centres unmarked) [Compound 47],"Plant response rating, Surinam grass",[1]; [32],0
same,"Plant response rating, Surinam grass",[1]; [33],0
same,"Plant response rating, Barnyardgrass",[2]; [32],0
same,"Plant response rating, Barnyardgrass",[2]; [33],0
same,"Plant response rating, Blackgrass",[3]; [32],0
same,"Plant response rating, Blackgrass",[3]; [33],0
same,"Plant response rating, Cocklebur",[4]; [32],0
same,"Plant response rating, Cocklebur",[4]; [33],0
same,"Plant response rating, Corn",corn (Zea mays) [5]; [32],0
same,"Plant response rating, Corn",corn (Zea mays) [5]; [33],0
same,"Plant response rating, Crabgrass",[6]; [32],0
same,"Plant response rating, Crabgrass",[6]; [33],0
same,"Plant response rating, Foxtail, Giant",[7]; [32],0
same,"Plant response rating, Foxtail, Giant",[7]; [33],0
same,"Plant response rating, Lambsquarters",[8]; [32],70
same,"Plant response rating, Lambsquarters",[8]; [33],90
same,"Plant response rating, Morningglory",[9]; [32],0
same,"Plant response rating, Morningglory",[9]; [33],0
same,"Plant response rating, Pigweed",[10]; [32],50
same,"Plant response rating, Pigweed",[10]; [33],50
same,"Plant response rating, Velvetleaf",[11]; [32],0
same,"Plant response rating, Velvetleaf",[11]; [33],0
same,"Plant response rating, Wheat",[12]; [32],0
same,"Plant response rating, Wheat",[12]; [33],0
same,"Plant response rating, Wild Oat",wild oat (Avena fatua); [32],0
same,"Plant response rating, Wild Oat",wild oat (Avena fatua); [33],0
same,"Plant response rating, Surinam grass",[13]; [30],0
same,"Plant response rating, Surinam grass",[13]; [31],0
same,"Plant response rating, Barnyardgrass",[14]; [30],0
same,"Plant response rating, Barnyardgrass",[14]; [31],0
same,"Plant response rating, Cocklebur",[15]; [30],0
same,"Plant response rating, Cocklebur",[15]; [31],0
same,"Plant response rating, Corn",corn (Zea mays) [16]; [30],0
same,"Plant response rating, Corn",corn (Zea mays) [16]; [31],0
same,"Plant response rating, Crabgrass",[17]; [30],0
same,"Plant response rating, Crabgrass",[17]; [31],0
same,"Plant response rating, Foxtail, Giant",[18]; [30],0
same,"Plant response rating, Foxtail, Giant",[18]; [31],0
same,"Plant response rating, Lambsquarters",[19]; [30],100
same,"Plant response rating, Lambsquarters",[19]; [31],0
same,"Plant response rating, Morningglory",[20]; [30],0
same,"Plant response rating, Morningglory",[20]; [31],0
same,"Plant response rating, Pigweed",[21]; [30],100
same,"Plant response rating, Pigweed",[21]; [31],100
same,"Plant response rating, Rice",rice (Oryza saliva) [22]; [30],20
same,"Plant response rating, Rice",rice (Oryza saliva) [22]; [31],0
same,"Plant response rating, Velvetleaf",[23]; [30],0
same,"Plant response rating, Velvetleaf",[23]; [31],0
same,"Plant response rating, Barnyardgrass",[24],70
same,"Plant response rating, Ducksalad",[25],20
same,"Plant response rating, Rice",rice (Oryza saliva) [26],70
same,"Plant response rating, Flatsedge",[27],100
CC(C)(C)c1ccn(C2CCN(c3cccc(OC(=O)C(F)(F)F)c3)C2=O)n1 (centres unmarked) [Compound 94],"Plant response rating, Surinam grass",[1]; [32],0
same,"Plant response rating, Surinam grass",[1]; [33],0
same,"Plant response rating, Barnyardgrass",[2]; [32],0
same,"Plant response rating, Barnyardgrass",[2]; [33],0
same,"Plant response rating, Blackgrass",[3]; [32],0
same,"Plant response rating, Blackgrass",[3]; [33],0
same,"Plant response rating, Cocklebur",[4]; [32],0
same,"Plant response rating, Cocklebur",[4]; [33],0
same,"Plant response rating, Corn",corn (Zea mays) [5]; [32],0
same,"Plant response rating, Corn",corn (Zea mays) [5]; [33],0
same,"Plant response rating, Crabgrass",[6]; [32],0
same,"Plant response rating, Crabgrass",[6]; [33],0
same,"Plant response rating, Foxtail, Giant",[7]; [32],0
same,"Plant response rating, Foxtail, Giant",[7]; [33],0
same,"Plant response rating, Lambsquarters",[8]; [33],20
same,"Plant response rating, Morningglory",[9]; [33],0
same,"Plant response rating, Pigweed",[10]; [33],10
same,"Plant response rating, Velvetleaf",[11]; [33],0
same,"Plant response rating, Wheat",[12]; [33],0
same,"Plant response rating, Wild Oat",wild oat (Avena fatua); [33],0
same,"Plant response rating, Surinam grass",[13]; [30],0
same,"Plant response rating, Surinam grass",[13]; [31],0
same,"Plant response rating, Barnyardgrass",[14]; [30],0
same,"Plant response rating, Barnyardgrass",[14]; [31],0
same,"Plant response rating, Cocklebur",[15]; [30],0
same,"Plant response rating, Cocklebur",[15]; [31],0
same,"Plant response rating, Corn",corn (Zea mays) [16]; [30],0
same,"Plant response rating, Corn",corn (Zea mays) [16]; [31],0
same,"Plant response rating, Crabgrass",[17]; [30],30
same,"Plant response rating, Crabgrass",[17]; [31],0
same,"Plant response rating, Foxtail, Giant",[18]; [30],0
same,"Plant response rating, Foxtail, Giant",[18]; [31],0
same,"Plant response rating, Lambsquarters",[19]; [30],100
same,"Plant response rating, Lambsquarters",[19]; [31],0
same,"Plant response rating, Morningglory",[20]; [30],0
same,"Plant response rating, Morningglory",[20]; [31],0
same,"Plant response rating, Pigweed",[21]; [30],0
same,"Plant response rating, Pigweed",[21]; [31],0
same,"Plant response rating, Rice",rice (Oryza saliva) [22]; [30],20
same,"Plant response rating, Rice",rice (Oryza saliva) [22]; [31],0
same,"Plant response rating, Velvetleaf",[23]; [30],70
same,"Plant response rating, Velvetleaf",[23]; [31],0
same,"Plant response rating, Barnyardgrass",[24],0
same,"Plant response rating, Ducksalad",[25],0
same,"Plant response rating, Rice",rice (Oryza saliva) [26],0
same,"Plant response rating, Flatsedge",[27],0
